Measurements from patent US20240116937A1, “Polymorph of (1S,2S,3S,5R)-3-((6-(difluoromethyl)-5-fluoro-1,2,3,4-tetrahydroisoquinolin-8-yl)oxy)-5-(4-methyl-7H-pyrrolo[2,3-D]pyrimidin-7-yl)cyclopentane-1,2-diol” (Pfizer Inc., priority 2020, published 2024).

Assay: Hygroscopicity: % mass change (ref dry mass) versus RH, free base compared to hydrochloride salt
Type: physicochemical
From the text: Hygroscopicity of Free Base (1S,2S,3S,5R)-3-((6-(difluoromethyl)-5-fluoro-1,2,3,4-tetrahydroisoquinolin-8-yl)oxy)-5-(4-methyl-7H-pyrrolo[2,3-d]pyrimidin-7-yl)cyclopentane-1,2-diol Compared to Crystalline (1S,2S,3S,5R)-3-((6-(difluoromethyl)-5-fluoro-1,2,3,4-tetrahydroisoquinolin-8-yl)oxy)-5-(4-methyl-7H-pyrrolo[2,3-d]pyrimidin-7-yl)cyclopentane-1,2-diol hydrochloride salt

- physical stability (hygroscopicity) relative to the dihydrochloride salt of WO2017/212385: low hygroscopicity
- % Mass-Ref Dry mass (RH 10): 0.1%
- % Mass-Ref Dry mass (RH 20): 0.3%
- % Mass-Ref Dry mass (RH 30): 0.4%
- % Mass-Ref Dry mass (RH 40): 1.8%
- % Mass-Ref Dry mass (RH 50): 2.0%
- % Mass-Ref Dry mass (RH 60): 2.1%
- % Mass-Ref Dry mass (RH 70): 2.2%
- % Mass-Ref Dry mass (RH 80): 2.2%
- % Mass-Ref Dry mass (RH 90): 2.3%
SMILES: Cc1ncnc2c1ccn2[C@@H]1C[C@H](Oc2cc(C(F)F)c(F)c3c2CNCC3)[C@@H](O)[C@H]1O [Free Base, (1S,2S,3S,5R)-3-((6-(difluoromethyl)-5-fluoro-1,2,3,4-tetrahydroisoquinolin-8-yl)oxy)-5-(4-methyl-7H-pyrrolo[2,3-d]pyrimidin-7-yl)cyclopentane-1,2-diol]
